# Laboratory results as given in ChEMBL document CHEMBL1129393, “Synthesis of novel trans-4-(substituted-benzamido)-3,4-dihydro-2H-benzo[b]-pyran-3-ol derivatives as potential anticonvulsant agents with a distinctive binding profile” (J Med Chem, 1996).
# Legend:
# SB-204269 binding site = test: Inhibition of [3H]-SB 204269 binding to rat forebrain membranes.; format: cell membranes, Membrane
# Mus musculus [1] = test: Percentage increase in seizure threshold at dose of 10 mg/kg in mouse maximal electroshock seizure threshold (MEST) model after po administration; format: functional
# Mus musculus [2] = test: Percentage increase in seizure threshold at dose of 3 mg/kg in mouse maximal electroshock seizure threshold (MEST) model after po administration
Log Ki (SB-204269 binding site),SMILES,Increase (Mus musculus [1]) [%],Increase (Mus musculus [2]) [%]
-5.84,CC1(C)Oc2ccc(S(=O)(=O)c3ccccc3)cc2C(NC(=O)c2ccc(F)cc2)C1O (stereo not drawn),-7,–
-6.35,CC1(C)Oc2ccc(C(F)(F)C(F)(F)F)cc2[C@H](NC(=O)c2ccc(F)cc2)[C@H]1O,-8,–
-7.16,CC(=O)c1ccc2c(c1)C(NC(=O)c1ccc(Cl)cc1)C(O)C(C)(C)O2 (stereo not drawn),55,–
-6.06,CC1(C)Oc2ccc(C(N)=O)cc2C(NC(=O)c2ccc(F)cc2)C1O (stereo not drawn),6,–
-5.3,Cc1ccc2c(c1)C(NC(=O)c1ccc(F)cc1)C(O)C(C)(C)O2 (stereo not drawn),5,–
-7.32,CC(=O)c1ccc2c(c1)[C@H](NC(=O)c1ccc(F)cc1)[C@@H](O)C(C)(C)O2 [CARABERSAT],102,89
-6.8,CCC(=O)c1ccc2c(c1)C(NC(=O)c1ccc(F)cc1)C(O)C(C)(C)O2 (stereo not drawn),35,–
-8.28,CC(=O)c1ccc2c(c1)[C@H](NC(=O)c1cccc(I)c1)[C@@H](O)C(C)(C)O2,51,–

# The next lines start with the compound.
SMILES,Log Ki (SB-204269 binding site),Increase (Mus musculus [1]) [%],Increase (Mus musculus [2]) [%]
CC1(C)Oc2ccc(C(=O)c3ccccc3)cc2C(NC(=O)c2ccc(F)cc2)C1O (stereo not drawn),-6.12,–,–
CC1(C)Oc2ccc(C#N)cc2[C@H](NC(=O)c2ccc(F)cc2)[C@H]1O,-6,41,15
CC(=O)c1ccc2c(c1)[C@H](NC(=O)c1cccc(Cl)c1)[C@@H](O)C(C)(C)O2,-8.04,90,78
CC(=O)c1ccc2c(c1)OC(C)(C)C(O)C2NC(=O)c1ccc(F)cc1 (stereo not drawn),-5.51,–,–
CC(=O)c1ccc2c(c1)[C@@H](NC(=O)c1ccc(F)cc1)[C@H](O)C(C)(C)O2,< -4.5,8,–
CC(=O)c1cccc2c1OC(C)(C)C(O)C2NC(=O)c1ccc(F)cc1 (stereo not drawn),-5,5,–
CC(=O)c1ccc2c(c1)[C@H](NC(=O)c1ccccc1Cl)[C@@H](O)C(C)(C)O2,-7.65,–,94
CC(=O)c1cccc2c1C(NC(=O)c1ccc(F)cc1)C(O)C(C)(C)O2 (stereo not drawn),-5.09,–,–
COC(=O)c1ccc2c(c1)C(NC(=O)c1ccc(F)cc1)C(O)C(C)(C)O2 (stereo not drawn),-6.69,59,–
CC1(C)Oc2ccc([N+](=O)[O-])cc2C(NC(=O)c2ccc(F)cc2)C1O (stereo not drawn),-6.2,45,2
CC1(C)Oc2ccc(F)cc2C(NC(=O)c2ccc(F)cc2)C1O (stereo not drawn),-5.38,10,–
CC(=O)c1ccc2c(c1)C(NC(=O)C1CCCCC1)C(O)C(C)(C)O2 (stereo not drawn),-5.9,–,–
CC(=O)c1ccc2c(c1)[C@H](NC(=O)c1ccccc1)[C@@H](O)C(C)(C)O2,-7.3,110,65
